pIC50: −log10 of the molar value.
Columns and labels:
[1] = tested on: abnormal stereotyped behaviour; assay: abnormal stereotyped behaviour, high intensity stereotypy (side effect profile); assay type: in vivo, rat; conditions: rats
Description: Backward locomotion may occasionally be observed.

[2] = tested on: haloperidol-induced catalepsy; assay: catalepsy test for antiparkinsonian effects (antagonism of haloperidol-induced catalepsy); assay type: in vivo; conditions: Rattus norvegicus; rats, test substance perorally 1 h before haloperidol 0.25 mg/kg subcutaneously; read-out: Minimum effective dose (peroral administration)
Description: The principle behind the haloperidol catalepsy test relates to the fact that the drug haloperidol (Serenase®) induces a receptor blockade of post synaptic dopamine receptors within the dopamine innervated corpus striatum of the rat brain. Following the blockade of active dopamine neurotransmission of the striatum a state of rigid immobility is induced, during which the rat can be placed in various totally abnormal immobile postures involving the forelegs and the whole body. […] The immobile posture effect induced by haloperidol closely resembles the state of Parkinson's disease in humans, which is due to a deficit of the dopaminergic innervation of the striatal complex (nucleus caudatus, putamen).
The day before testing, the rats weighing 200-250 g are housed 2 and 2 together in standard macrolon cages. […] The testing for the immobile catalepsy syndrome includes 4 tests performed in the following consecutive order: • 1) a vertical wire netting (40x40 cm high).The meshes (openings) of the nettings are approximately 1×2cm. • 2) a horizontal bar 9 cm above the floor • 3) a 9 cm high block (bar) • 4) a 3 cm high block (cork)
The rats were scored for the immobile cataleptic syndrome every 15 min in all 4 tests starting 15 min after the haloperidol injection. The intensity of catalepsy was tested during 10 sec in all tests and evaluated according to a criteria of 10 sec of total immobility for a score of 2.
The rat was placed in the middle of the vertical wire netting, then on the horizontal bar in an extended position with support by both the forelegs on the bar. The rats were then tested, whether or not they were willing to sit with the left or right forelegs placed first on the 9 and then on the 3 cm block for a duration of 10 sec. The maximum score for all 4 tests is thus a total of 8.

[3] = target: T1, reuptake of dopamine in synaptosomes of rat forebrain (Rattus norvegicus, UniProt P23977); assay: inhibition of reuptake of dopamine (3H-dopamine) in synaptosomes; assay type: biochemical
T1 construct: from tissue; host or cells: whole forebrain of male Wistar rats (crude synaptosomal supernatant)
Description: Fresh whole forebrain (at 0-4°C) from male Wistar rats (150-200 g) is homogenized in a glass homogenizer with a Teflon pestle in 20 x volumes 0.32M sucrose. The homogenate is centrifuged at 1000 x g (∼ 2900 rpm) for 10 min. The pellet is discarded and the supernatant is used for uptake assays. […] The samples are thoroughly mixed and incubated 10 min at 37°C followed by 2 min at 0°C. After incubation the samples are poured directly onto Whatman GF/C glass fibre filters under suction and immediately washed with 2 x 5 ml ice-cold 0.9% saline (NaCI) buffer. To the filter is added 3 ml of scintillation fluid, and the amount of radioactivity on the filters is determined by conventional liquid scintillation counting.

[4] = tested on: excitatory locomotor and rearing responses; assay: behavioural excitatory locomotor and rearing responses (side effect profile); assay type: in vivo, rat; conditions: for Activity: locomotor and rearing, maximum peak effect, rats
Description: Male SPF wistar rats weighing 200-250g were used for the gross behavioural studies. All rats were transferred the day before the experiments to individual cages made of wire netting (floor area 21 x 27 cm, height 16 cm) at a room temperature of 21-23° C. […] The behavioural elements here classified as rearing (i.e. standing up on the hindlegs) and locomotor activities (i.e. forward running activities) were registered, and the maximum peak effects were classified according to the following rating scale: • 0 = non-existent or very infrequent • + = weak and infrequent • ++ = moderate in intensity and frequency • +++ = very strong, continuous and intense
The degree of locomotor activity was also tested and measured quantitatively in photocell activity cages. For the measurement of this locomotor activity 100 g female rats are used.

[5] = tested on: dopamine releasing properties; assay: dopamine releasing properties

T1 sequence (P23977 whole entry): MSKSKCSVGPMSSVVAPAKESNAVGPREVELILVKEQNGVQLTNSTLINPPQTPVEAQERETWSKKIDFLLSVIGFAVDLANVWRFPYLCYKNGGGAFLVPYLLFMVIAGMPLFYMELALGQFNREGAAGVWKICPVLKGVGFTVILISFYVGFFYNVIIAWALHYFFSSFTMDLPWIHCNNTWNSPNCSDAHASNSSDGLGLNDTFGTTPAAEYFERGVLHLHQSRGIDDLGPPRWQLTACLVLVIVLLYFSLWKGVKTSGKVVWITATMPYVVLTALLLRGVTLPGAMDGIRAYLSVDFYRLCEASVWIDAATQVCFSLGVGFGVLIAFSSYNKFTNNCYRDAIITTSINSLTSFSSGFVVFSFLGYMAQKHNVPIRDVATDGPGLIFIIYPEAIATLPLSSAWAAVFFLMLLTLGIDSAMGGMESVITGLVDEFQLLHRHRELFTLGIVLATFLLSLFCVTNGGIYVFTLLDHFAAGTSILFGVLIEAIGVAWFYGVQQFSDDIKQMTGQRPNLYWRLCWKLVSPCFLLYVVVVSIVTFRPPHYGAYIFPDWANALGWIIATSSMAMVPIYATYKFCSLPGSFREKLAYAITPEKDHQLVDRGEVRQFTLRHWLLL

SMILES	Activity ([1]; 50 mg/kg i.p.)	minimal effective dose [2]	pIC50 [3]	Activity ([4]; 10 mg/kg i.p.)	Activity ([4]; 50 mg/kg i.p.)	Activity ([1]; 25 mg/kg i.p.)	Activity ([1]; 100 mg/kg p.o.)	Activity ([4]; 100 mg/kg i.p.)	dopamine releasing properties [5]	side effects as measured by excitatory locomotor activity and rearing responses as well as by abnormal stereotyped behaviour ([4]; at every relevant dosing level tested)
CN1[C@H]2CC[C@@H]1[C@H](c1nc(-c3ccccn3)no1)[C@@H](c1ccc(Cl)c(Cl)c1)C2 [(1R,2R,3S)-2-(3-(2-Pyridyl)-1,2,4-oxadiazol-5-yl)-3-(3,4-dichlorophenyl)-tropane]	+	> 1 mg/kg	6.94	0						
CN1[C@H]2CC[C@@H]1[C@H](c1nc(-c3cccs3)no1)[C@@H](c1ccc(Cl)c(Cl)c1)C2 [(1R,2R,3S)-2-(3-(2-Thienyl)-1,2,4-oxadiazol-5-yl)-3-(3,4-dichlorophenyl)-tropane]	0	> 1 mg/kg	6.70		0					
CN1[C@H]2CC[C@@H]1[C@H](c1nc(-c3ccncc3)no1)[C@@H](c1ccc(Cl)c(Cl)c1)C2 [(1R,2R,3S)-2-(3-(4-Pyridyl)-1,2,4-oxadiazol-5-yl)-3-(3,4-dichlorophenyl)-tropane]		0.25 mg/kg	7.16	0		++	+	++		
COC(=O)[C@@H]1[C@@H](c2ccc(F)cc2)C[C@@H]2CC[C@H]1N2C [trans isomer of Win 35,428, (1R,2R,3S)-2-carbomethoxy-3-(4-fluorophenyl)tropane, reference compound]									essentially free of dopamine releasing properties	essentially or totally devoid of side effects

Reference: patent EP0604352B1, “Aryl-substituted heterocyclic compounds” (N[…]/S, priority 1992, dated 1994)
